Read-outs that look alike come from different tables or passages of the source. Blank lines part the entries; values can stand above or below the molecule they belong to.
Key:
[1] = Circulating metabolites measured in plasma in clinical studies; type: in vivo, human; conditions: all studies
[2] = tested on: CYP1A2; experiment: CYP1A2 contribution to metabolism and retrograde intrinsic clearance; type: in vitro ADME, human; conditions: retrograde approach
[3] = tested on: CYP2A6; experiment: CYP2A6 contribution to metabolism and retrograde intrinsic clearance; type: in vitro ADME, human; conditions: retrograde approach
[4] = tested on: CYP2C9; experiment: CYP2C9 contribution to metabolism and retrograde intrinsic clearance; type: in vitro ADME, human; conditions: retrograde approach
[5] = tested on: CYP2E1; experiment: CYP2E1 contribution to metabolism and retrograde intrinsic clearance; type: in vitro ADME, human; conditions: retrograde approach
[6] = tested on: CYP3A4; experiment: CYP3A4 contribution to metabolism and retrograde intrinsic clearance; type: in vitro ADME, human; conditions: retrograde approach
[7] = tested on: CYP3A5; experiment: CYP3A5 contribution to metabolism and retrograde intrinsic clearance; type: in vitro ADME, human; conditions: retrograde approach
[8] = biological target: T1, CYP2C8 (Homo sapiens, UniProt P10632); experiment: CYP2C8 reversible; type: in vitro ADME
T1 sequence (P10632 1-490): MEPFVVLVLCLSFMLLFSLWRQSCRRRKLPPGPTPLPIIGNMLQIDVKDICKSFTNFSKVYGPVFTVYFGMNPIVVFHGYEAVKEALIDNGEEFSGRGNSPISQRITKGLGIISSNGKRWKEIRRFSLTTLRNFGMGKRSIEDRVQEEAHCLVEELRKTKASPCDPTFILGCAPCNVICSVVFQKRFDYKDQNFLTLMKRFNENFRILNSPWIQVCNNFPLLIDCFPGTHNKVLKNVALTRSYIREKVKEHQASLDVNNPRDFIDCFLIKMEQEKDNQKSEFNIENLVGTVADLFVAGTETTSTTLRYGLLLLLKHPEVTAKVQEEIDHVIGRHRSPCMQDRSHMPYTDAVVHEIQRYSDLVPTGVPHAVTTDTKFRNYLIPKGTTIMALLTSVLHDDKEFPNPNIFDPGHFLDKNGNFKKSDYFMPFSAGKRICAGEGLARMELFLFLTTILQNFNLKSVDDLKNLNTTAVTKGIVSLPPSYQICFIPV

[9] = tested on: CYP3A4/5; experiment: CYP3A4/5 reversible; type: in vitro ADME; conditions: human
[10] = Fraction unbound in microsomal incubation; type: in vitro ADME; conditions: microsomes (microsomal incubation)
[11] = biological target: T2, BCRP (Homo sapiens, UniProt Q9UNQ0); experiment: BCRP inhibition, basic static model; type: in vitro ADME
T2 sequence (Q9UNQ0 1-655): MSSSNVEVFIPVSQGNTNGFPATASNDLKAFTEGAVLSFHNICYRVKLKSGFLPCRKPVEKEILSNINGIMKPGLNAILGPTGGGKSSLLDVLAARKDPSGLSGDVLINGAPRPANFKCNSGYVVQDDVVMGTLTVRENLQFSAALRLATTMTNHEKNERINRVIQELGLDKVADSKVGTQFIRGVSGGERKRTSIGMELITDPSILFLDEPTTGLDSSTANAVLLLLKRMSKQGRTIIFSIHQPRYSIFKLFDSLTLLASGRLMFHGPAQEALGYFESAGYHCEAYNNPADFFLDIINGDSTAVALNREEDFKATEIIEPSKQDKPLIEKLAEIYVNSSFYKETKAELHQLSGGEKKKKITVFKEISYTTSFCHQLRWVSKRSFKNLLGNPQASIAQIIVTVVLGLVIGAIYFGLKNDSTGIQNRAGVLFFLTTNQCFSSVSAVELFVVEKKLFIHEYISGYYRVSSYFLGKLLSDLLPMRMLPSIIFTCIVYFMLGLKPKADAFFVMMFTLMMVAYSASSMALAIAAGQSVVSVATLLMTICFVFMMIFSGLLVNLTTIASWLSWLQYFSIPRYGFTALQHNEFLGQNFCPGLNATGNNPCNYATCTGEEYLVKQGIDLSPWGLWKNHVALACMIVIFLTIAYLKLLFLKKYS

[12] = biological target: T3, OATP1B1 (Homo sapiens, UniProt Q9Y6L6); experiment: OATP1B1 inhibition, basic static model; type: in vitro ADME
T3 sequence (Q9Y6L6 1-691): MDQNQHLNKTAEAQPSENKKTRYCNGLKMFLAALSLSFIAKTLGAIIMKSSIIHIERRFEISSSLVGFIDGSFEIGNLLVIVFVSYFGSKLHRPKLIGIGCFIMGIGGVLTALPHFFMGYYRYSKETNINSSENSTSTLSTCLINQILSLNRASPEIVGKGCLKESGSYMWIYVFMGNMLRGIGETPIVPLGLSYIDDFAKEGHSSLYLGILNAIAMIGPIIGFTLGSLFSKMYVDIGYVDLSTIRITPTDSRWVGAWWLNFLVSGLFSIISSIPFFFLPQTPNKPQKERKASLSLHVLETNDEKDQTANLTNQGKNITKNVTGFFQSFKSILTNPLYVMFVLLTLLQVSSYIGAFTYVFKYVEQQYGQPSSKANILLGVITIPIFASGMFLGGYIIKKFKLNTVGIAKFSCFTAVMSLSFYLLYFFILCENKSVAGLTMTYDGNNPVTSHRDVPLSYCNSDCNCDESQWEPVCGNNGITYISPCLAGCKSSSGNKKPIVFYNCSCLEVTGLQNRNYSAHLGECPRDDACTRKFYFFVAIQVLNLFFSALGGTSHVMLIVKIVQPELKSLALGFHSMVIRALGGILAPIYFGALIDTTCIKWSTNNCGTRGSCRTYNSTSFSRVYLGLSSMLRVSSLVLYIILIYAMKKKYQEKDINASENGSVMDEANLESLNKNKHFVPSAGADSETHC

[13] = biological target: P-glycoprotein (P-gp) (Homo sapiens, UniProt P08183); experiment: In vitro efflux transporter substrate study, P-gp; type: in vitro ADME
[14] = biological target: T2, BCRP; experiment: In vitro efflux transporter substrate study, BCRP; type: in vitro ADME
[15] = type: in vivo; conditions: human, plasma, oral, 80 mg
[16] = cited from earlier work
[17] = tested on: CYP3A4/5; conditions: in vitro data; cited from earlier work
[18] = doses studied 20–240 mg; cited from earlier work
[19] = multiple doses 80 mg once daily, no inducer

P-glycoprotein (P-gp), sequence (P08183 whole entry): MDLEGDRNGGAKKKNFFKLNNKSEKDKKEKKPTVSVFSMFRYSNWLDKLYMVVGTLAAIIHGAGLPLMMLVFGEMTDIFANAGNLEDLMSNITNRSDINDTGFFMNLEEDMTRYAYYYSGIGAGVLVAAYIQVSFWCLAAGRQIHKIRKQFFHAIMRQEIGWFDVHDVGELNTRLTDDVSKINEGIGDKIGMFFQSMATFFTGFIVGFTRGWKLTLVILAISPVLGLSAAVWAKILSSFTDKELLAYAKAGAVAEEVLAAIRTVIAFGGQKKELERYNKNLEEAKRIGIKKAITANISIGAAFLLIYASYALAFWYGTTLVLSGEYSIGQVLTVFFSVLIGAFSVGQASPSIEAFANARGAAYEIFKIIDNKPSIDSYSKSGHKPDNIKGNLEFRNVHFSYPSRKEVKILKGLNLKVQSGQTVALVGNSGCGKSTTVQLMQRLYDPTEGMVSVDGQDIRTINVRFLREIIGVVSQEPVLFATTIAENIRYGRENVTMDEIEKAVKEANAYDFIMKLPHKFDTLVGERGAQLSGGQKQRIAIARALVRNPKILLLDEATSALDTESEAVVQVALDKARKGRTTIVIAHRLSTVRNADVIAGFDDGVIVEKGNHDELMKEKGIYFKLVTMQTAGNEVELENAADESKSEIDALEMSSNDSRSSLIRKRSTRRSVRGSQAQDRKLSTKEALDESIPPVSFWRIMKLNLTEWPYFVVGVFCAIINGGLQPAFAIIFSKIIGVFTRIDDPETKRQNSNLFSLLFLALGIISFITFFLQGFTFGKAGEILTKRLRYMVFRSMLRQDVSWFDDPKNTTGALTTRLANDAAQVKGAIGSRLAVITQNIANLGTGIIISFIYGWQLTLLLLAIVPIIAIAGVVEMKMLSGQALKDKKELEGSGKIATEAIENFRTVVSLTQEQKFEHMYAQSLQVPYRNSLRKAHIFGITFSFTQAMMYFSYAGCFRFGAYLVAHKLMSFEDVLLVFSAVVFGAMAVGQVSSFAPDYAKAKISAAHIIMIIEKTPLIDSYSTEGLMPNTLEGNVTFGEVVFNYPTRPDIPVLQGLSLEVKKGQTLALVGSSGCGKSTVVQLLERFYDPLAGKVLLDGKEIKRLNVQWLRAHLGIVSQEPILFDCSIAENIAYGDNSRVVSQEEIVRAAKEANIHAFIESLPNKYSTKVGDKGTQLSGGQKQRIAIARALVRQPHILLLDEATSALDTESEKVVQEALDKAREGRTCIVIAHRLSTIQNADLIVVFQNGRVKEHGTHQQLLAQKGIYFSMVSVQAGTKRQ

contribution of metabolite to total drug-related exposure [1]: < 10%
SMILES: C=CC(=O)Nc1cc(Nc2nccc(-c3cn(C)c4ccccc34)n2)c(OC)cc1N(C)CCNC [AZ7550]

SMILES: C=CC(=O)Nc1cc(Nc2nccc(-c3cn(C)c4ccccc34)n2)c(OC)cc1N(C)CCN(C)C [Osimertinib]
CYP1A2 CLint [2]: 0.520 µL/min/pmol of isoform
CYP2A6 CLint [3]: 1.749 µL/min/pmol of isoform
CYP2C9 CLint [4]: 0.479 µL/min/pmol of isoform
CYP2E1 CLint [5]: 0.111 µL/min/pmol of isoform
CYP3A4 CLint [6]: 0.731 µL/min/pmol of isoform
CYP3A5 CLint [7]: 0.210 µL/min/pmol of isoform
Ki [8]: 11.4 µM
Ki [9]: 2.55 µM
fraction unbound [10]: 0.0261
Ki [11]: 2 µM
BCRP Potential for DDI ([11]; basic static model): likely
Ki [12]: 22 µM
Ki ([12]; human): 52.5 µM
substrate for P-gp [13]: substrate
substrate for BCRP [14]: substrate
AUC [15]: 11.5 µM·h
median (range) Tmax [16]: 6 (3–24) hours
median time of maximum plasma concentration (Tmax) ([16]; oncology patients): 6 h
oral clearance ([16]; oncology patients): 14.2 L/h
volume of distribution ([16]; oncology patients): around 997 L
increase of Cmax and AUC with dose ([16]; single oral doses of 20 to 240 mg): dose proportional
fraction metabolized (fm) CYP3A [17]: 54%
maximum tolerated dose [18]: no maximum tolerated dose was reached
Css,max Geo.mean (range) [%CV], observed [19]: 545 (258 to 1,220) nM
